Test system: MV-4-11 cells
Assay: Gene expression microarray analysis (Affymetrix PrimeView) and GSEA
Type: cell-based, human
Parameters: RFU PODN (11730768_x_at) / Fold change /veh PODN (11730768_x_at) / RFU LINC00158 (11744669_a_at) / Fold change /veh LINC00158 (11744669_a_at) / RFU DUSP10 (11751237_a_at) / Fold change /veh DUSP10 (11751237_a_at) / RFU ID3 (11757404_x_at) / Fold change /veh ID3 (11757404_x_at) / RFU PLEKHG5 (11737974_s_at) / Fold change /veh PLEKHG5 (11737974_s_at) / RFU LRRC4B (11730491_at) / Fold change /veh LRRC4B (11730491_at) / RFU GIMAP4 (11747438_a_at) / Fold change /veh GIMAP4 (11747438_a_at) / RFU KRT8 (11758183_x_at) / Fold change /veh KRT8 (11758183_x_at) / RFU CNN1 (11734310_a_at) / Fold change /veh CNN1 (11734310_a_at) / RFU VPS37D (11726825_at) / Fold change /veh VPS37D (11726825_at) / RFU C10orf10 (11716522_x_at) / Fold change /veh C10orf10 (11716522_x_at) / RFU KIR2DL2 /// KIR2DL4 /// KIR2DL5A /// KIR2DL5B /// KIR2DS1 /// KIR2DS2 /// KIR2DS3 /// KIR2DS4 /// KIR3DL3 /// KIR3DL3 /// KIR3DS1 (11738374_at) / Fold change /veh KIR2DL2 /// KIR2DL4 /// KIR2DL5A /// KIR2DL5B /// KIR2DS1 /// KIR2DS2 /// KIR2DS3 /// KIR2DS4 /// KIR3DL3 /// KIR3DL3 /// KIR3DS1 (11738374_at) / RFU C1QL1 (11718748_at) / Fold change /veh C1QL1 (11718748_at) / RFU TMPRSS4 (11747572_a_at) / Fold change /veh TMPRSS4 (11747572_a_at) / RFU HAMP (11756126_x_at) / Fold change /veh HAMP (11756126_x_at) / RFU RNFT2 (11725882_a_at) / Fold change /veh RNFT2 (11725882_a_at) / RFU NR4A2 (11747474_a_at) / Fold change /veh NR4A2 (11747474_a_at) / RFU ABCC12 (11746883_a_at) / Fold change /veh ABCC12 (11746883_a_at) / RFU TMEM136 (11760407_x_at) / Fold change /veh TMEM136 (11760407_x_at) / RFU CLDN22 /// WWC2 (11732394_at) / Fold change /veh CLDN22 /// WWC2 (11732394_at) / RFU HLA-DPB1 (11760878_x_at) / Fold change /veh HLA-DPB1 (11760878_x_at) / RFU SPINT1 (11716480_a_at) / Fold change /veh SPINT1 (11716480_a_at) / RFU GAP43 (11754022_s_at) / Fold change /veh GAP43 (11754022_s_at) / RFU A4GNT (11735810_at) / Fold change /veh A4GNT (11735810_at) / RFU PRB3 (11715151_x_at) / Fold change /veh PRB3 (11715151_x_at) / RFU TUBB4B (11761932_at) / Fold change /veh TUBB4B (11761932_at) / RFU CAPN14 (11732068_a_at) / Fold change /veh CAPN14 (11732068_a_at) / RFU TMCC2 (11721928_a_at) / Fold change /veh TMCC2 (11721928_a_at) / RFU IRGQ (11745062_a_at) / Fold change /veh IRGQ (11745062_a_at) / RFU FAM174B (11720279_a_at) / Fold change /veh FAM174B (11720279_a_at) / RFU TMPRSS4 (11748680_a_at) / Fold change /veh TMPRSS4 (11748680_a_at) / RFU FAM212B (11763350_a_at) / Fold change /veh FAM212B (11763350_a_at) / RFU PLEKHG5 (11743358_a_at) / Fold change /veh PLEKHG5 (11743358_a_at) / RFU ZSCAN30 (11745921_a_at) / Fold change /veh ZSCAN30 (11745921_a_at) / RFU CMKLR1 (11741424_a_at) / Fold change /veh CMKLR1 (11741424_a_at) / RFU LOC101060620 /// MAPK8IP1 (11723275_at) / Fold change /veh LOC101060620 /// MAPK8IP1 (11723275_at) / RFU SPTSSB (11747773_x_at) / Fold change /veh SPTSSB (11747773_x_at) / RFU PRSS12 (11739890_at) / Fold change /veh PRSS12 (11739890_at) / RFU BIN1 (11741810_x_at) / Fold change /veh BIN1 (11741810_x_at) / RFU WNT11 (11732464_a_at) / Fold change /veh WNT11 (11732464_a_at) / RFU C10orf10 (11716521_a_at) / Fold change /veh C10orf10 (11716521_a_at) / RFU C5orf56 (11738089_at) / Fold change /veh C5orf56 (11738089_at) / RFU CYB561 (11721691_x_at) / Fold change /veh CYB561 (11721691_x_at) / RFU ANKRD19P (11752326_a_at) / Fold change /veh ANKRD19P (11752326_a_at) / RFU OR2T12 /// OR2T33 /// OR2T8 (11738714_s_at) / Fold change /veh OR2T12 /// OR2T33 /// OR2T8 (11738714_s_at) / RFU VCAN (11748164_a_at) / Fold change /veh VCAN (11748164_a_at) / RFU JSRP1 (11732532_at) / Fold change /veh JSRP1 (11732532_at) / RFU KRTAP10-11 (11738290_x_at) / Fold change /veh KRTAP10-11 (11738290_x_at) / RFU MYO3A (11730013_a_at) / Fold change /veh MYO3A (11730013_a_at) / RFU EBF3 (11725865_a_at) / Fold change /veh EBF3 (11725865_a_at) / RFU CAMK2N1 (11719241_x_at) / Fold change /veh CAMK2N1 (11719241_x_at) / RFU C5orf56 (11738088_a_at) / Fold change /veh C5orf56 (11738088_a_at) / RFU OLFML3 (11715873_a_at) / Fold change /veh OLFML3 (11715873_a_at) / RFU LOC100653217 /// NTM (11731650_a_at) / Fold change /veh LOC100653217 /// NTM (11731650_a_at) / RFU MAPK11 (11762145_a_at) / Fold change /veh MAPK11 (11762145_a_at) / RFU FIZ1 (11724087_x_at) / Fold change /veh FIZ1 (11724087_x_at) / RFU OASL (11726364_x_at) / Fold change /veh OASL (11726364_x_at) / RFU SOX15 (11748057_x_at) / Fold change /veh SOX15 (11748057_x_at) / RFU CD79A (11719716_a_at) / Fold change /veh CD79A (11719716_a_at) / RFU HIST1H1D (11736915_at) / Fold change /veh HIST1H1D (11736915_at) / RFU CASKIN2 (11723855_a_at) / Fold change /veh CASKIN2 (11723855_a_at) / RFU LOC730098 (11760151_x_at) / Fold change /veh LOC730098 (11760151_x_at) / RFU OR4N2 (11742367_at) / Fold change /veh OR4N2 (11742367_at) / RFU PRRT2 (11749266_a_at) / Fold change /veh PRRT2 (11749266_a_at) / RFU SNX32 (11753110_a_at) / Fold change /veh SNX32 (11753110_a_at) / RFU CDHR5 (11726645_a_at) / Fold change /veh CDHR5 (11726645_a_at) / RFU RCAN1 (11760418_a_at) / Fold change /veh RCAN1 (11760418_a_at) / RFU FAM167A (11723789_a_at) / Fold change /veh FAM167A (11723789_a_at) / RFU FAM26E (11764081_at) / Fold change /veh FAM26E (11764081_at) / RFU ISYNA1 (11749810_s_at) / Fold change /veh ISYNA1 (11749810_s_at) / RFU ACY1 (11761880_at) / Fold change /veh ACY1 (11761880_at) / RFU 11764098_at / Fold change /veh 11764098_at / RFU SAMD14 (11745864_x_at) / Fold change /veh SAMD14 (11745864_x_at) / RFU NPB (11741838_a_at) / Fold change /veh NPB (11741838_a_at) / RFU TMPRSS6 (11731388_a_at) / Fold change /veh TMPRSS6 (11731388_a_at) / RFU KRTAP10-2 (11738614_at) / Fold change /veh KRTAP10-2 (11738614_at) / RFU ARHGAP8 /// PRR5-ARHGAP8 (11727945_x_at) / Fold change /veh ARHGAP8 /// PRR5-ARHGAP8 (11727945_x_at) / RFU KRTAP5-7 /// NADSYN1 (11734609_at) / Fold change /veh KRTAP5-7 /// NADSYN1 (11734609_at) / RFU RASL12 (11751679_a_at) / Fold change /veh RASL12 (11751679_a_at) / RFU CDKN2B (11736163_a_at) / Fold change /veh CDKN2B (11736163_a_at) / RFU PRF1 (11729649_at) / Fold change /veh PRF1 (11729649_at) / RFU, ZNF638 /// ZNF638-IT1 / Fold change vs veh, ZNF638 /// ZNF638-IT1 / RFU, PANK3 / Fold change vs veh, PANK3 / RFU, SH3YL1 / Fold change vs veh, SH3YL1 / RFU, ZEB2 / Fold change vs veh, ZEB2 / RFU, NRIP1 / Fold change vs veh, NRIP1 / RFU, PTTG1IP / Fold change vs veh, PTTG1IP / RFU, CAPN2 / Fold change vs veh, CAPN2 / RFU, MED14 / Fold change vs veh, MED14 / RFU, SNORA58 / Fold change vs veh, SNORA58 / RFU, C1orf63 / Fold change vs veh, C1orf63 / RFU, LRRFIP1 / Fold change vs veh, LRRFIP1 / RFU, NDUFAF7 / Fold change vs veh, NDUFAF7 / RFU, SLC12A2 / Fold change vs veh, SLC12A2 / RFU, IBTK / Fold change vs veh, IBTK / RFU, ESF1 / Fold change vs veh, ESF1 / Fold change vs veh, TMEM50B / RFU, TAOK1 / Fold change vs veh, TAOK1 / RFU, ACBD3 / Fold change vs veh, ACBD3 / RFU, TMA16 / Fold change vs veh, TMA16 / RFU, RWDD3 / Fold change vs veh, RWDD3 / RFU, BCAT1 / Fold change vs veh, BCAT1 / RFU, EDEM3 / Fold change vs veh, EDEM3 / RFU, TMEM33 / Fold change vs veh, TMEM33 / RFU, WDR75 / Fold change vs veh, WDR75 / RFU, AHCTF1 / Fold change vs veh, AHCTF1 / RFU, TFRC / Fold change vs veh, TFRC / RFU, ZDHHC17 / Fold change vs veh, ZDHHC17 / RFU, NOM1 / Fold change vs veh, NOM1 / RFU, ARL8B / Fold change vs veh, ARL8B / RFU, ZBTB11 / Fold change vs veh, ZBTB11 / RFU, TAMM41 / Fold change vs veh, TAMM41 / RFU, KIAA1704 /// LOC100996395 / Fold change vs veh, KIAA1704 /// LOC100996395 / RFU, ING1 / Fold change vs veh, ING1 / RFU, TRMT61B / Fold change vs veh, TRMT61B / RFU, FUBP3 / Fold change vs veh, FUBP3 / RFU, TP53 / Fold change vs veh, TP53 / RFU, TNKS2 / Fold change vs veh, TNKS2 / RFU, ZFP14 / Fold change vs veh, ZFP14 / RFU, ACTR2 / Fold change vs veh, ACTR2 / RFU, PPP3R1 / Fold change vs veh, PPP3R1 / RFU, PIK3R1 / Fold change vs veh, PIK3R1 / RFU, HNRNPA1 / Fold change vs veh, HNRNPA1 / RFU, RNF170 / Fold change vs veh, RNF170 / RFU, ZNF28 / Fold change vs veh, ZNF28 / RFU, RNGTT / Fold change vs veh, RNGTT / RFU, OGT / Fold change vs veh, OGT / RFU, BRD1 / Fold change vs veh, BRD1 / RFU, MARS / Fold change vs veh, MARS / RFU, ZNF655 / Fold change vs veh, ZNF655 / RFU, FAHD1 / Fold change vs veh, FAHD1 / RFU, BDP1 / Fold change vs veh, BDP1 / RFU, LRRCC1 / Fold change vs veh, LRRCC1 / RFU, ARID1A / Fold change vs veh, ARID1A / RFU, ZNF146 / Fold change vs veh, ZNF146 / RFU, ZNF330 / Fold change vs veh, ZNF330 / RFU, GPN3 / Fold change vs veh, GPN3 / RFU, C9orf123 / Fold change vs veh, C9orf123 / RFU, N4BP2L2 / Fold change vs veh, N4BP2L2 / RFU, ARFIP1 / Fold change vs veh, ARFIP1 / RFU, FAM179B / Fold change vs veh, FAM179B / RFU, BCL10 / Fold change vs veh, BCL10 / RFU, UHRF1BP1L / Fold change vs veh, UHRF1BP1L / RFU, BET1 / Fold change vs veh, BET1 / RFU, CNOT2 / Fold change vs veh, CNOT2 / RFU, ZNF268 / Fold change vs veh, ZNF268 / Fold change vs veh, ZNF507 / RFU, DGCR2 / Fold change vs veh, DGCR2 / RFU, WDSUB1 / Fold change vs veh, WDSUB1 / Fold change vs veh, HSP90B1 /// MIR3652 / RFU, ADSS / Fold change vs veh, ADSS / RFU, GK / Fold change vs veh, GK / RFU, ZNF148 / Fold change vs veh, ZNF148 / RFU, TAF9 / Fold change vs veh, TAF9 / RFU, SLC1A5 / Fold change vs veh, SLC1A5 / RFU, SLMO2 / Fold change vs veh, SLMO2 / RFU, ABCC4 / Fold change vs veh, ABCC4 / RFU, LOC101060439 /// RAP1B / Fold change vs veh, LOC101060439 /// RAP1B / RFU, RFX7 / Fold change vs veh, RFX7 / RFU, GTPBP10 / Fold change vs veh, GTPBP10 / RFU, CNEP1R1 / Fold change vs veh, CNEP1R1 / RFU, BIVM-ERCC5 /// ERCC5 / Fold change vs veh, BIVM-ERCC5 /// ERCC5 / RFU, ILF3 / Fold change vs veh, ILF3 / RFU 11762660_at / Fold change /veh 11762660_at / RFU VCAN (11757783_s_at) / Fold change /veh VCAN (11757783_s_at) / RFU DDX43 (11728927_at) / Fold change /veh DDX43 (11728927_at) / RFU KRT8 (11758188_x_at) / Fold change /veh KRT8 (11758188_x_at) / RFU NKD1 (11759106_at) / Fold change /veh NKD1 (11759106_at) / RFU SRD5A1 (11742802_a_at) / Fold change /veh SRD5A1 (11742802_a_at) / RFU TPSAB1 /// TPSB2 (11721975_s_at) / Fold change /veh TPSAB1 /// TPSB2 (11721975_s_at) / RFU GSTM3 (11746129_a_at) / Fold change /veh GSTM3 (11746129_a_at) / RFU IL23R (11737362_x_at) / Fold change /veh IL23R (11737362_x_at) / RFU TMEM51 (11727254_a_at) / Fold change /veh TMEM51 (11727254_a_at) / RFU PIWIL2 (11732686_x_at) / Fold change /veh PIWIL2 (11732686_x_at) / RFU ORM1 (11744905_x_at) / Fold change /veh ORM1 (11744905_x_at) / RFU CCDC152 (11743942_at) / Fold change /veh CCDC152 (11743942_at) / RFU ECM1 (11717891_a_at) / Fold change /veh ECM1 (11717891_a_at) / RFU IL23R (11748794_a_at) / Fold change /veh IL23R (11748794_a_at) / RFU TNFAIP8L3 (11732012_x_at) / Fold change /veh TNFAIP8L3 (11732012_x_at) / RFU MBOAT4 (11741988_at) / Fold change /veh MBOAT4 (11741988_at) / RFU 11764193_at / Fold change /veh 11764193_at / RFU TMEM53 (11763286_at) / Fold change /veh TMEM53 (11763286_at) / RFU MAGEB2 (11727129_at) / Fold change /veh MAGEB2 (11727129_at) / RFU TMEM200A (11744735_a_at) / Fold change /veh TMEM200A (11744735_a_at) / RFU CCDC152 (11751479_a_at) / Fold change /veh CCDC152 (11751479_a_at) / RFU FAM211A (11726209_a_at) / Fold change /veh FAM211A (11726209_a_at) / RFU RGS16 (11746705_a_at) / Fold change /veh RGS16 (11746705_a_at) / RFU VCAN (11755009_s_at) / Fold change /veh VCAN (11755009_s_at) / RFU RHOB (11743442_s_at) / Fold change /veh RHOB (11743442_s_at) / RFU RGS16 (11720943_a_at) / Fold change /veh RGS16 (11720943_a_at) / RFU RGS16 (11720944_at) / Fold change /veh RGS16 (11720944_at) / RFU, VPS4B / Fold change vs veh, VPS4B / RFU, CREB1 / Fold change vs veh, CREB1 / RFU, DNAJC13 / Fold change vs veh, DNAJC13 / RFU, GNAQ / Fold change vs veh, GNAQ / RFU, CDK5R1 / Fold change vs veh, CDK5R1 / RFU, ZRANB3 / Fold change vs veh, ZRANB3 / RFU, CUL4A / Fold change vs veh, CUL4A / RFU, CCNY / Fold change vs veh, CCNY / RFU, UFL1 / Fold change vs veh, UFL1 / RFU, COG3 / Fold change vs veh, COG3 / RFU, DIAPH2 / Fold change vs veh, DIAPH2 / RFU, SKA2 / Fold change vs veh, SKA2 / RFU, AFF3 / Fold change vs veh, AFF3 / RFU, LMF1 / Fold change vs veh, LMF1 / RFU, IPO11 / Fold change vs veh, IPO11 / RFU, DFFB / Fold change vs veh, DFFB / RFU, FOXP1 / Fold change vs veh, FOXP1 / RFU, CARD8 / Fold change vs veh, CARD8 / RFU, STRN3 / Fold change vs veh, STRN3 / RFU, ADK / Fold change vs veh, ADK / RFU, RASSF2 / Fold change vs veh, RASSF2 / RFU, WIPF1 / Fold change vs veh, WIPF1 / RFU, LARP1B / Fold change vs veh, LARP1B / RFU, RASA1 / Fold change vs veh, RASA1 / RFU, RB1 / Fold change vs veh, RB1 / RFU, PPFIA1 / Fold change vs veh, PPFIA1 / RFU, MAT2A / Fold change vs veh, MAT2A / RFU, CCT5 / Fold change vs veh, CCT5 / RFU, WDR92 / Fold change vs veh, WDR92 / RFU, CUX1 / Fold change vs veh, CUX1 / RFU, TTC7A / Fold change vs veh, TTC7A / RFU, TMEM135 / Fold change vs veh, TMEM135 / RFU, DEPTOR / Fold change vs veh, DEPTOR / RFU, CPM / Fold change vs veh, CPM / RFU, DNAJB6 / Fold change vs veh, DNAJB6 / RFU, CACNA2D3 / Fold change vs veh, CACNA2D3 / RFU, DTX4 / Fold change vs veh, DTX4 / RFU, TFCP2 / Fold change vs veh, TFCP2 / RFU, GMCL1 /// GMCL1P1 / Fold change vs veh, GMCL1 /// GMCL1P1 / RFU, AEBP2 / Fold change vs veh, AEBP2 / RFU, SNHG1 /// SNORD22 /// SNORD25 /// SNORD26 /// SNORD27 /// SNORD28 /// SNORD29 /// SNORD31 / Fold change vs veh, SNHG1 /// SNORD22 /// SNORD25 /// SNORD26 /// SNORD27 /// SNORD28 /// SNORD29 /// SNORD31 / Fold change (Aza/veh), C12orf56 (ProbeSet 11735607_a_at) / Fold change (ACY-1035/veh), C12orf56 (ProbeSet 11735607_a_at) / Fold change (Aza/veh), FGFR1OP (ProbeSet 11751329_s_at) / Fold change (ACY-1035/veh), FGFR1OP (ProbeSet 11751329_s_at) / Fold change (Aza/veh), VPS36 (ProbeSet 11739960_a_at) / Fold change (ACY-1035/veh), VPS36 (ProbeSet 11739960_a_at) / RFU SYPL1 (11715823_x_at) / Fold change /veh SYPL1 (11715823_x_at) / RFU IGFBP7 (11715501_s_at) / Fold change /veh IGFBP7 (11715501_s_at) / RFU REEP3 (11722064_at) / Fold change /veh REEP3 (11722064_at) / RFU IGLL1 (11728026_x_at) / Fold change /veh IGLL1 (11728026_x_at): dose or concentration left out as unconfirmed
Settings: MV-4-11 cells, 48 hours

## Nc1ccc(-c2cccs2)cc1NC(=O)c1ccc2c(c1)cc(C1CC1)n2CCN1CCOCC1 [ACY-1035]
  Fold change /veh KRTAP10-2 (11738614_at): 0.99

— paper PMC5218480 (PLoS ONE, 2017)
